# Test results from patent US20220142959A1, “LEUCINE, ACETYL LEUCINE, AND RELATED ANALOGS FOR TREATING DISEASE” (priority 2019, published 2022).
# Legend:
# [1] = tested on: LC3-II and p62/SQSTM1; assay: Western blot of autophagy flux markers in cortex after CCI induced TBI; type: in vivo, mice
# Protocol: Controlled cortical impact (CCI) induced TBI was performed in male C57BL6/J mice (20-25 g). Briefly, after a 10-mm midline incision was made over the skull, the skin and fascia were retracted, and a 4-mm craniotomy was made on the central aspect of the left parietal bone of mice under surgical anesthesia (2-3% isoflurane evaporated in a gas mixture containing 70% N20 and 30% 02). Moderate injury was induced in the exposed brain by a custom microprocessor-controlled and compressed air driven pneumatic impactor of 3.5 mm diameter tip with the impact velocity of 6 m/s and a deformation depth of 2 mm.
# N-Acetyl-L-Leucine (“NAL” or “NALL”) was dissolved in ethanol to prepare a 50 mg/ml solution which was then diluted in water to give a 10 mg/ml solution. About 0.25 ml of the NAL solution (10 mg/ml) was orally administered in mice at a […] (2.5 mg NAL/25 g mouse) via oral gavage each day after CCI induced TBI for 4 days. Mice were also fed with NAL at 0.5 mg/kg chow powder chow mixed with diet gel for up to 7 days after injury.
# Around 5 mm tissue of ipsilateral cortex around the site of injury from TBI mice or the corresponding tissue of same volume around the same cortical region from sham mice were dissected and processed. […] Protein bands were detected using chemiluminiscence kit (Pierce, 34076) and visualized using Chemi-doc system (Bio-Rad). Band intensity was analyzed using Image Lab software (Bio-Rad) and normalized to loading control (β-Actin). […]
# Autophagy is a lysosome dependent cellular degradation process that is disrupted due to lysosomal damage after TBI. […] Whether attenuation of cell death following NALL treatment in TBI mice is mediated through the restoration of autophagy flux was assessed.
# The levels of LC3-II and p62/SQSTM1 in the cortical tissue lysates prepared from vehicle and NAL fed naïve and TBI mice were determined by western blot analysis. A decrease in the levels of LC3-II in the brain of NALL fed mice as compared to vehicle treated mice at day 1 after TBI was detected. […]
# [2] = tested on: rat primary cortical neurons; assay: U18666A-mediated impairment of lysosomal fusion in rat primary cortical neurons; type: cell-based; settings: co-treated with U18666A (2 μg/mL) and compound 1 mM, 24 h
# Protocol: (§1) FIG. 18. is a histogram of the ratio of LC3-II normalised to βIII tubulin (expressed as a percentage of untreated (n=1)) in rat primary cortical neurons that were treated with U18666A (2 μg/ml, 24 hr) in the absence or presence of ADLL, ALL, ADL, DLL, LL, DL, and LLE (1 mM, 24 hr).
# as §1, with “19” for “18.”, “is” for “is a”, “APP-CTFs-6 and -7” for “LC3-II”, “their respective CTFs in untreated cells” for “βIII tubulin”, “(n=1)” for “(n=1))”
# The efficacy of ADLL, ALL, ADL, DLL, LL, DL, and LLE in alleviating the U18666A-mediated impairment of autophagosome-lysosome fusion and endosomal lysosomal fusion was investigated. In this cell-based assay of impaired EAL flux, the reappearance of basal levels of APP CTFs-6 and -7, provided an indication of improved endosomal-lysosomal fusion.
# Neurons were co-treated with U18666A (2 μg/mL) along with ADLL, ALL, ADL, DLL, LL, DL, and LLE (1 mM, 24 h).
# [3] = tested on: cerebellar Purkinje cells; assay: Purkinje cell survival in Npc1−/− mice; type: in vivo; settings: 59 days of age, compared to Npc1−/− UT
# Excerpt: (§2) FIG. 46 is an image showing cerebellar Purkinje cell loss progressing from anterior to posterior lobes and microglial activation in untreated Npc1^−/− mice and Npc1^−/− mice treated with ADLL, ALL, and ADL. Cerebellums were stained with calbindin-b (Purkinje cells) or CD68 (activated microglia).
# FIG. 47 is a scatter graph showing Purkinje cell survival at 59 days of age in untreated Npc1^−/− mice and Npc1^−/− mice treated with ADLL, ALL, and ADL.
# (§3) The combination of increased survival of neurons and a less inflammatory environment in the brain could improve brain function, quality of life, and delay the progression of disease in human subjects.
# [4] = tested on: CD68 positive activated microglia; assay: CD68 positive activated microglia in cerebellum of Npc1−/− mice; type: in vivo; settings: 59 days of age, compared to Npc1−/− UT
# Excerpt: as §2
# FIG. 48 is a scatter graph showing frequency of CD68 positive activated microglia at 59 days of age in untreated Npc1^−/− mice and Npc1^−/− mice treated with ADLL, ALL, and ADL. CD68 cell density was measured in the cerebellum. n=5 animals per group. Mean±SD, *** p<0.0009 (one-way ANOVA).
# as §3
# [5] = tested on: rat model of an acute unilateral labyrinthectomy; settings: activation of vestibulo-cerebellum, deactivation of posterolateral thalamus; cited from earlier work
smiles,measurement,setting,value
"CC(=O)N[C@@H](CC(C)C)C(=O)O [ALL, acetyl-L-leucine]",p62/SQSTM1 level in the cortex,[1]; NALL fed vs vehicle treated mice after TBI,decrease
same,levels of LC3-II in the brain,"[1]; NALL fed vs vehicle treated mice, day 1 after TBI",decrease
same,autophagy flux,[1]; mouse cortices after TBI,improves autophagy flux
same,CTF-6 and -7 (endosomal-lysosomal fusion),[2],reappearance of basal amounts
same,LC3-II levels,[2],lower than the basal levels
same,Purkinje cell survival in any cerebellar lobules,[3],did not improve
same,reduction of frequency of CD68 positive activated microglia,[4],20%
same,effect on postural compensation,[5],significant effect
